Patent publication US20260200928A1, “THERAPEUTIC COMPOUNDS” (Sanofi, priority 2022, published 2026)

Biological target: T1, human IL-17A (Homo sapiens, UniProt Q16552)
T1 construct: purchased R&D Systems 7955-IL/CF
T1 sequence (Q16552 24-155): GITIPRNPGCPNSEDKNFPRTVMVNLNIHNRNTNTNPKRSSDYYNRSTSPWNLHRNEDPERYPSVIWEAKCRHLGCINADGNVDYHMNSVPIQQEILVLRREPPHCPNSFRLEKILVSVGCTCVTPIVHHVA
Assay: IL-17A AlphaLISA competition assay (block of IL-17A binding to its receptor IL-17RA)
Conditions: mean IC50 (n≥2), block of IL-17A binding to IL-17RA
In short: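 Bead-based AlphaLISA competition in PBS with 0.05% Tween-20 and 0.1% BSA: compound first meets human IL-17A (7.5 nM stock) for 30 min, then IL-17RA/Fc (5 nM stock) for 90 min, all at room temperature, before acceptor/donor bead capture. IC50 fitted 4-parameter, DMSO and 4 μM reference inhibitor as controls; at least duplicate.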

Compound | IC50 [nM]
CCc1conc1C(=O)N[C@H](C(=O)Nc1cc([C@@H](COC)N2C[C@@H](C(F)(F)F)NC2=O)ccn1)C1CCC(Cl)CC1 (stereo partly drawn) [Example 314, N-((1S)-1-(4-chlorocyclohexyl)-2-((4-((S)-2-methoxy-1-((S)-2-oxo-4-(trifluoromethyl)imidazolidin-1-yl)ethyl)pyridin-2-yl)amino)-2-oxoethyl)-4-ethylisoxazole-3-carboxamide] | 58
COC[C@H](c1ccnc(NC(=O)[C@@H](NC(=O)c2nonc2C)C2CCC(Cl)CC2)c1)N1C[C@@H](C(F)(F)F)NC1=O (stereo partly drawn) [Example 315, N-((1S)-1-(4-chlorocyclohexyl)-2-((4-((S)-2-methoxy-1-((S)-2-oxo-4-(trifluoromethyl)imidazolidin-1-yl)ethyl)pyridin-2-yl)amino)-2-oxoethyl)-4-methyl-1,2,5-oxadiazole-3-carboxamide] | 90
CCc1nonc1C(=O)N[C@H](C(=O)Nc1cc([C@@H](COC)N2C[C@@H](C(F)(F)F)NC2=O)ccn1)C1CCC(Cl)CC1 (stereo partly drawn) [Example 316, N-((1S)-1-(4-chlorocyclohexyl)-2-((4-((S)-2-methoxy-1-((S)-2-oxo-4-(trifluoromethyl)imidazolidin-1-yl)ethyl)pyridin-2-yl)amino)-2-oxoethyl)-4-ethyl-1,2,5-oxadiazole-3-carboxamide] | 46
CCc1nocc1C(=O)N[C@H](C(=O)Nc1cc([C@@H](COC)N2C[C@@H](C(F)(F)F)NC2=O)ccn1)C1CCC(Cl)CC1 (stereo partly drawn) [Example 317, N-((1S)-1-(4-chlorocyclohexyl)-2-((4-((S)-2-methoxy-1-((S)-2-oxo-4-(trifluoromethyl)imidazolidin-1-yl)ethyl)pyridin-2-yl)amino)-2-oxoethyl)-3-ethylisoxazole-4-carboxamide] | 19
N-((1S)-1-(4-chlorocyclohexyl)-2-((4-((S)-2-methoxy-1-((S)-2-oxo-4-(trifluoromethyl)imidazolidin-1-yl)ethyl)pyridin-2-yl)amino)-2-oxoethyl)-1-methyl-1H-pyrazole-5-carboxamide [Example 311] | 96
N-((S)-1-(4,4-difluorocyclohexyl)-2-oxo-2-((4-(2-((S)-2-oxo-4-(trifluoromethyl)imidazolidin-1-yl)propan-2-yl)pyridin-2-yl)amino)ethyl)-1-isopropyl-1H-pyrazole-5-carboxamide [Example 175] | 384
N-((S)-2-((4-((S)-1-(5,5-difluoro-2-oxotetrahydropyrimidin-1(2H)-yl)-2-methoxyethyl)pyridin-2-yl)amino)-1-(4,4-difluorocyclohexyl)-2-oxoethyl)-4-ethyl-1,2,5-oxadiazole-3-carboxamide [Example 183] | 42

More lines, now with the values ahead:

IC50 [nM] | Compound
64 | CCc1oncc1C(=O)N[C@H](C(=O)Nc1cc([C@@H](COC)N2C[C@@H](C(F)(F)F)NC2=O)ccn1)[C@@H]1C[C@H]2C[C@H]2C1 [Example 318, N—((S)-1-((1R,3s,5S)-bicyclo[3.1.0]hexan-3-yl)-2-((4-((S)-2-methoxy-1-((S)-2-oxo-4-(trifluoromethyl)imidazolidin-1-yl)ethyl)pyridin-2-yl)amino)-2-oxoethyl)-5-ethylisoxazole-4-carboxamide]
38 | COC[C@H](c1ccnc(NC(=O)[C@@H](NC(=O)c2cnoc2C(C)C)[C@@H]2C[C@H]3C[C@H]3C2)c1)N1C[C@@H](C(F)(F)F)NC1=O [Example 319, N—((S)-1-((1R,3s,5S)-bicyclo[3.1.0]hexan-3-yl)-2-((4-((S)-2-methoxy-1-((S)-2-oxo-4-(trifluoromethyl)imidazolidin-1-yl)ethyl)pyridin-2-yl)amino)-2-oxoethyl)-5-isopropylisoxazole-4-carboxamide]
604 | CC(C)n1nccc1C(=O)N[C@H](C(=O)Nc1cc(O[C@H]2C[C@@H](C(F)(F)F)NC2=O)ccn1)[C@H]1CC[C@H](C)CC1 [Example 320, 1-isopropyl-N—((S)-1-((1r,4S)-4-methylcyclohexyl)-2-oxo-2-((4-(((3S,5S)-2-oxo-5-(trifluoromethyl)pyrrolidin-3-yl)oxy)pyridin-2-yl)amino)ethyl)-1H-pyrazole-5-carboxamide]
689 | CCc1nocc1C(=O)N[C@H](C(=O)Nc1cc(O[C@H]2C[C@@H](C(F)(F)F)NC2=O)ccn1)[C@H]1CC[C@H](C)CC1 [Example 321, 3-ethyl-N—((S)-1-((1r,4S)-4-methylcyclohexyl)-2-oxo-2-((4-(((3S,5S)-2-oxo-5-(trifluoromethyl)pyrrolidin-3-yl)oxy)pyridin-2-yl)amino)ethyl)isoxazole-4-carboxamide]
821 | CCn1nccc1C(=O)N[C@H](C(=O)Nc1cc(O[C@H]2C[C@@H](C(F)(F)F)NC2=O)ccn1)[C@H]1CC[C@H](C)CC1 [Example 322, 1-ethyl-N—((S)-1-((1r,4S)-4-methylcyclohexyl)-2-oxo-2-((4-(((3S,5S)-2-oxo-5-(trifluoromethyl)pyrrolidin-3-yl)oxy)pyridin-2-yl)amino)ethyl)-1H-pyrazole-5-carboxamide]
1210 | CC(C)n1nccc1C(=O)N[C@H](C(=O)Nc1cc(O[C@@H]2C[C@@H](C(F)(F)F)NC2=O)ccn1)[C@H]1CC[C@H](C)CC1 [Example 323, 1-isopropyl-N—((S)-1-((1r,4S)-4-methylcyclohexyl)-2-oxo-2-((4-(((3R,5S)-2-oxo-5-(trifluoromethyl)pyrrolidin-3-yl)oxy)pyridin-2-yl)amino)ethyl)-1H-pyrazole-5-carboxamide]
